“And” between values parts separate entries of the source, which are not always exact repeats. Identical values can stand only once.
How the values were obtained:
[1] = biological target: T1, GluA1 flip isoform devoid of TARP (Homo sapiens, UniProt P42261); test: FLIPR antagonist functional assay, GluA1 flip expressed without TARP in CHO-S cells; assay type: cell-based; settings: glutamate 45 μM plus CTZ 20 μM, assay limit of 9260 nM
T1 construct: expressed in transfected cells; host or cells: CHO-S (Invitrogen), transient transfection
Description: (§1) Briefly, CHO-S (Invitrogen) cells are grown in suspension in 50/50 custom media to a density of 1×10^7 cells/ml. (50/50 custom media is a low calcium media made as a 1:1 (v/v) mixture of CD CHO media (Gibco #10743) and a custom complete media. The custom complete media is made by adding 0.40 mg/L tropolone, 5.00 mg/L insulin, 20 mM HEPES, and 0.075% Pluronic® F68 to a custom basal media having the following formula: (values as mg/L unless otherwise specified) 11.01 anhydrous calcium chloride, 0.050 ferric nitrate-9H2O, 0.420 ferrous sulfate-7H2O, 28.64 anhydrous magnesium chloride, 48.84 anhydrous magnesium sulfate, 312.14 KCl, 5505.96 NaCl, 62.57 monobasic sodium phosphate, 71.28 anhydrous dibasic sodium phosphate, 0.432 zinc sulfate-7H2O, 10.0 ethanolamine HCl, 6000 D-glucose (dextrose), 0.210 DL lipoic acid thioctic, 0.081 putrescine 2 HCl, 4.78 sodium hypoxanthine, 220.24 sodium pyruvate, 0.730 thymidine, 8.90 L-alanine, 211.23 L-arginine HCl, 15.02 L-asparagine H2O, 13.31 L-aspartic acid, 62.67 cystine 2 HCl, 7.360 L-glutamic acid, 146.16 L-Glutamine, 30.0 gylicine, 42.04 L-histidine HCl 2 H2O, 105.11 L-isoluecine, 105.11 L-luecine, 146.16 L-lysine HCl, 30.03 L-methionine, 66.07 L-phenylalanine, 17.27 L-proline, 42.04 L-serine, 95.1 L-threonine, 16.02 L-typtophan, 104.11 L-tyrosine disodium salt, 94.1 L-valine, 8.99 choline chloride, 4.00 folic acid, 12.61 I inositol, 4.00 niacinamide, 4.00 pyridoxal HCl, 0.031 pyridoxine HCl, 0.400 riboflavin, 4.00 sodium pantothenate, 4.00 thiamine HCl, 0.680 vitamin B 12, and 2200 sodium bicarbonate.) Cells are centrifuged at 1000×g for […] and resuspended in fresh 50/50 custom media at 2×10^6 cells/ml. For batch transfection, 2 mg of total DNA(s) is used for each liter of cells. For GluA1-γ8 transfection of CHO-S cells, human GluA1 Qflop-Cacng8-pBudCE4.1 DNA (Qiagen) and human EAAT3 pAN104 DNA (Qiagen, a […]) are mixed in a ratio of 2:3. For GluA1-γ2 transfection of CHO-S cells, human GluA1 Qflop-Cacng2-pBudCE4.1 (Qiagen) is used. For GluA1 flip transfection of CHO-S cells, human GluA1 flip pcDNA3.1 DNA (Qiagen) is used. DNA(s) and FreeStyle™ MAX Reagent (Invitrogen cat#16447-500) are added to basal custom media (see above) in the proportions of 10 μg total DNA: 10 plFreeStyleTm MAX Reagent: 1 ml media, to form a DNA complex. […]
(§2) Frozen transfected CHO-S cells expressing AMPA receptors are thawed and plated in Dulbecco's Modified Eagle Media (DMEM media) (Gibco, cat#11960) containing 5% dialyzed Fetal Bovine Serum (Gibco, cat#26400-036) and 20 mM HEPES at 50,000 cells per well in 384-well Poly-D-lysine coated plates (Becton Dickinson, cat#354663) and cultured overnight at 37° C. On the day of an experiment, two fluorescence dye loading buffers are prepared. […]

[2] = biological target: T2, TARP γ8 dependent GluA1 flop receptors (Homo sapiens, UniProt P42261+Q8WXS5); test: FLIPR antagonist functional assay, GluA1 flop co-expressed with TARP γ8 in CHO-S cells; assay type: cell-based; settings: glutamate 45 μM plus CTZ 20 μM, read-out: relative IC50, inhibition of glutamate plus CTZ activation of TARP γ8 dependent GluA1 flop receptors
T2 construct: expressed in transfected cells; host or cells: CHO-S (Invitrogen), transient transfection
Description: as §1, §2

[3] = biological target: T3, TARP γ2 dependent GluA1 flop receptors (Homo sapiens, UniProt P42261+Q9Y698); test: FLIPR antagonist functional assay, GluA1 flop co-expressed with TARP γ2 in CHO-S cells; assay type: cell-based; settings: glutamate 45 μM plus CTZ 20 μM, assay limit of 9260 nM
T3 construct: expressed in transfected cells; host or cells: CHO-S (Invitrogen), transient transfection
Description: as §1, §2

formalin induced pain = test: Manual formalin induced pain model; assay type: in vivo; settings: mice, p.o.
Description: The manual formalin induced pain model is well known for screening compounds for analgesic properties (Mogil J. S. et al., Heritability of nociception I: Responses of 11 inbred mouse strains on 12 measures of nociception. Pain 80 (1999) 67-82). The assay is performed in Plexiglas® boxes approx. 10 cm×10 cm×10 cm in size. A minor placed at the back of the cage allows the unhindered observation of the formalin injected paw. Non-fasted male mice (Harlan (HSD) CD1-Icr) are placed individually in the cubicles at least 60 min. prior to the experiment. All testing is conducted between 08:00 and 16:00 hr. and the testing room temperature is maintained at 21-23° C. […] Formalin (20 uL of a 5% solution in 0.9% saline) is injected subcutaneously into the plantar surface of the left hind paw with a 27 gauge needle. Observation starts immediately after the formalin injection. Formalin induced pain is quantified by recording the number of seconds each licking event lasts in 5 min intervals. The pain scoring is measured for 60 min. after the formalin injection. Two phases of pain behavior are observed as previously described (Wheeler-Aceto, H., Porreca, F. and Cowan, A., The rat paw formalin test: comparison of noxious agents, Pain 40 (1990) 229-238). The early phase starts immediately after the formalin injection and lasts approximately 5 min., followed by the late phase that starts between minutes 10-15 with a maximum response typically observed around 25-40 min after the formalin injection. After the 60 min. observation period, animals are sacrificed with CO2 followed by cervical dislocation. Of the different scoring parameters reported for the formalin test, the total time spent licking and biting the injected paw is considered to be most relevant. (Abbott et al., The formalin test: scoring properties of the first and second phases of the pain response in rats, Pain 60 (1995) 91-102; Coderre et al., The formalin test: a validation of the weighted-scores method of the behavioral pain rating, Pain 54 (1993) 43-50).) The early phase score is the sum of time spent licking (seconds) from time 0 to 5 min. The late phase score is obtained by adding the total number of seconds spent licking from minute 15 to min 55 of the observation period. Data are presented as means with standard errors of means (±SEM). Data are evaluated by one-way analysis of variance (ANOVA) and the appropriate contrasts analyzed by Dunnett “t” test for two sided comparisons. Differences are considered to be significant if the P-value is less than 0.05. (Abbott, supra.; Coderre, supra.; and Wheeler-Aceto, supra.)

T1 sequence (P42261 19-906 isoform P42261-2 limits assumed): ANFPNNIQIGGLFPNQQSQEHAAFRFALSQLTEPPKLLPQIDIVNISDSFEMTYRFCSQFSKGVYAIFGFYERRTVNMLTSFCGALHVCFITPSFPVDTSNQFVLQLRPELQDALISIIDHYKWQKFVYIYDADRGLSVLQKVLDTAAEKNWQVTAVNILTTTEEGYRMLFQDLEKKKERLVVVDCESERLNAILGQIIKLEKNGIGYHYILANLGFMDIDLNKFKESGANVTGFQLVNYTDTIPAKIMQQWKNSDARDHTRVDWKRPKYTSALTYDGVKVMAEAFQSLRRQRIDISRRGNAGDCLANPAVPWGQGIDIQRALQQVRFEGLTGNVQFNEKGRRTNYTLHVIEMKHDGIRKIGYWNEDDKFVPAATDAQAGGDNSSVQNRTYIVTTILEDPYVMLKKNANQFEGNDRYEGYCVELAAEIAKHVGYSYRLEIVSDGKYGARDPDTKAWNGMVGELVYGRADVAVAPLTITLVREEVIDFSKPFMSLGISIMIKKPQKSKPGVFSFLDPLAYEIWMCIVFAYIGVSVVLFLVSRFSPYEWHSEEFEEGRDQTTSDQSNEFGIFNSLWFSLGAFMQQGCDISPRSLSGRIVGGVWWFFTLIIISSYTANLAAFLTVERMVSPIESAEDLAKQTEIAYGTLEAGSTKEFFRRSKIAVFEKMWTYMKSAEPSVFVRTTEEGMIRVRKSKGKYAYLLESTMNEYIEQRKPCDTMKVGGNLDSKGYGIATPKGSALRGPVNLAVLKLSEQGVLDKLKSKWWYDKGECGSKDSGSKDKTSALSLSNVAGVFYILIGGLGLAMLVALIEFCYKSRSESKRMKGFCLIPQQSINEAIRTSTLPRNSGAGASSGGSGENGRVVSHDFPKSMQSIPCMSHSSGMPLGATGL
T2 sequence (P42261 19-906): as the sequence (P42261 19-906 isoform P42261-2 limits assumed) above, with G740N, S750N, V754L, S760N, K772G, D773G, S774G, G775D counted along it
T2 sequence (Q8WXS5 whole entry): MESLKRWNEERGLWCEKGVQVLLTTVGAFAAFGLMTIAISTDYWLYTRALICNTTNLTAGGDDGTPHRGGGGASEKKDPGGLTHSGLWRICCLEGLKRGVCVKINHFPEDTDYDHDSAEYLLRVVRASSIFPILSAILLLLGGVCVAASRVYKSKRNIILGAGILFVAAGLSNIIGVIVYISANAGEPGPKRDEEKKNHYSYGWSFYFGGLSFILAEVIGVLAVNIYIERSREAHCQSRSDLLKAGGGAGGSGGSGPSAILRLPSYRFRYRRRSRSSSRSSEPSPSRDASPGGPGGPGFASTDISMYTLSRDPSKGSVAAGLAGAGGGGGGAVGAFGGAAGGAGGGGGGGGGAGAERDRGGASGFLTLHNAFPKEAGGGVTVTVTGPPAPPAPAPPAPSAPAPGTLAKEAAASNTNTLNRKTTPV
T3 sequence (P42261 19-906): as the sequence (P42261 19-906 isoform P42261-2 limits assumed) above, with G740N, S750N, V754L, S760N, K772G, D773G, S774G, G775D counted along it
T3 sequence (Q9Y698 whole entry): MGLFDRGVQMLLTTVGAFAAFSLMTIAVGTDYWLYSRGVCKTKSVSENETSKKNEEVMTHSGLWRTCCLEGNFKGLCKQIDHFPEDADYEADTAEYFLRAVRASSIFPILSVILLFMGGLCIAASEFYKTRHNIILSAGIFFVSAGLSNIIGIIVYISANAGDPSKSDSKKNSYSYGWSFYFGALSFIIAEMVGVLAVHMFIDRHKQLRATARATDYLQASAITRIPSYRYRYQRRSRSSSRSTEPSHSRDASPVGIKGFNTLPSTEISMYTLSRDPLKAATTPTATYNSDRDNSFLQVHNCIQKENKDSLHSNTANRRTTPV

**Q.** For CC(c1ccc2[nH]c(=O)sc2c1)c1ccn(-c2ccc(N3CCC(O)CC3)cn2)n1 (single isomer, unassigned) [Example 3, 6-(1-(1-(5-(4-hydroxypiperidin-1-yl)pyridin-2-yl)-1H-pyrazol-3-yl)ethyl)benzo[d]thiazol-2(3H)-one], which IC50 [1] is on record?
**A.** > 9.26 µM

**Q.** And the IC50 [2]?
**A.** 0.0911 ± 0.0481 µM

**Q.** What about the IC50 [3] of the same molecule?
**A.** > 9.26 µM

**Q.** What about the “Percent reversal of Late Phase Licking” value (formalin induced pain; 1 mg/Kg) of the same molecule?
**A.** 32.3%

**Q.** And the “Percent reversal of Late Phase Licking” value (formalin induced pain; 3 mg/Kg)?
**A.** 43.8%

**Q.** What about the “Percent reversal of Late Phase Licking” value (formalin induced pain; 10 mg/Kg) of the same molecule?
**A.** 66.2%

**Q.** Which “Percent reversal of Late Phase Licking” value (formalin induced pain; 3 mg/Kg) does the source give for CC(c1ccc2[nH]c(=O)sc2c1)c1ccn(-c2ccc(CCC(C)(C)O)cn2)n1 (single isomer, unassigned) [Example 30] here?
**A.** 8.88%

**Q.** What about the “Percent reversal of Late Phase Licking” value (formalin induced pain; 10 mg/Kg) of the same molecule?
**A.** 11.77%

**Q.** What about the “Percent reversal of Late Phase Licking” value (formalin induced pain; 30 mg/Kg) of the same molecule?
**A.** 47.77%

**Q.** What about the “Percent reversal of Late Phase Licking” value (formalin induced pain; 60 mg/Kg) of the same molecule?
**A.** 62.14%

**Q.** With C[C@@H](c1ccc2[nH]c(=O)sc2c1)c1ccn(-c2ccc(CCO)cn2)n1 (single isomer, unassigned) [Example 27] as the molecule, how does the IC50 [1] read?
**A.** > 9.26 µM

**Q.** And the IC50 [2]?
**A.** 0.0616 ± 0.0235 µM

**Q.** What about the IC50 [3] of the same molecule?
**A.** > 9.26 µM

**Q.** And the “Percent reversal of Late Phase Licking” value (formalin induced pain; 10 mg/Kg)?
**A.** 24.27%

**Q.** And the “Percent reversal of Late Phase Licking” value (formalin induced pain; 30 mg/Kg)?
**A.** 57.15%

**Q.** What about the “Percent reversal of Late Phase Licking” value (formalin induced pain; 60 mg/Kg) of the same molecule?
**A.** 62.14%

**Q.** For CC(c1ccc2[nH]c(=O)sc2c1)c1csc(-c2ccccn2)n1 (single isomer, unassigned) [Example 53, 6-[1-(2-pyridin-2-yl-thiazol-4-yl)-ethyl]-3H-benzothiazol-2-one], which IC50 [1] is on record?
**A.** > 9.26 µM

**Q.** What about the IC50 [2] of the same molecule?
**A.** 0.0656 ± 0.0149 µM

**Q.** And the IC50 [3]?
**A.** > 9.26 µM

**Q.** What does the source list for CC(O)COCc1ccc(-n2ccc(C(C)c3ccc4[nH]c(=O)sc4c3)n2)nc1 (single isomer, unassigned) [Example 55, 6-[1-[1-[5-(2-hydroxypropoxymethyl)-2-pyridyl]pyrazol-3-yl]ethyl]-3H-1,3-benzothiazol-2-one]?
**A.** Percent reversal of Late Phase Licking (formalin induced pain; 3 mg/Kg): 25.64%; Percent reversal of Late Phase Licking (formalin induced pain; 10 mg/Kg): 31.08%; Percent reversal of Late Phase Licking (formalin induced pain; 30 mg/Kg): 63.47%

**Q.** How did the “Percent reversal of Late Phase Licking” value (formalin induced pain; positive control 80 mg/Kg Tramadol, one value per experiment (Examples 3, 27, 30, 55)) turn out when COc1cccc(C2(O)CCCCC2CN(C)C)c1 (centres unmarked) [Tramadol, tramadol, reference compound] was run?
**A.** 94.7% and 86.97% and 57.96% and 81.84%

**Q.** What does the source list for CC(=O)c1ccc(-c2csc(C(C)c3ccc4[nH]c(=O)sc4c3)n2)nc1 (single isomer, unassigned) [Example 54, 6-[1-[4-(5-acetyl-2-pyridyl)thiazol-2-yl]ethyl]-3H-1,3-benzothiazol-2-one]?
**A.** IC50 [1]: > 9.26 µM; IC50 [2]: 0.0826 ± 0.0562 µM; IC50 [3]: > 9.26 µM

— patent US9469632B2, “6-substituted-3H-1,3-benzothiazol-2-one compounds as TARP-gamma 8 dependent AMPA receptor antagonists” (Eli Lilly and Company, priority 2014, dated 2016)
